Measured values taken from PubChem BioAssay (NCI).
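In this assay, cells in 96-well plates receive the compound at five concentrations for 48 hours. Endpoints are linearly interpolated between the surrounding concentrations. Definition used: TGI = concentration required for complete inhibition of growth.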

Assays:
Assay in all cases: DTP human tumour cell line panel, 48 h
A549 NSCLC = tested on: A549 NSCLC
NCI-H460 lung = tested on: NCI-H460 lung
NCI-H522 lung = tested on: NCI-H522 lung
LXFL 529 NSCLC = tested on: LXFL 529 NSCLC
DLD-1 colon = tested on: DLD-1 colon
KM20L2 colon = tested on: KM20L2 colon
DMS 273 small cell lung = tested on: DMS 273 small cell lung
HOP-18 NSCLC = tested on: HOP-18 NSCLC
M19-MEL melanoma = tested on: M19-MEL melanoma
XF 498 CNS = tested on: XF 498 CNS

O=C(NC(=S)Nc1ccc2c(c1)Sc1ccccc1O2)c1ccc([N+](=O)[O-])cc1
TGI (A549 NSCLC): > 100 µM
TGI (NCI-H460 lung): > 100 µM
TGI (NCI-H522 lung): > 100 µM

COc1cc2c(cc1C[C@H]1[C@@H]3C[C@H]4c5c(c6ccccc6n5C)C[C@@H]([C@@H]3CO[C@]1(C)OC(C)=O)N4C)c1c(n2C)C2C[C@H]3C(C(C)=O)=COC[C@H]3[C@H](C1)N2C
TGI (A549 NSCLC): > 25 µM
TGI (NCI-H460 lung): 8.21 µM

CCN(CC)Cc1cc(Nc2c3ccccc3nc3c2[nH]c2ccccc23)cc(CN(CC)CC)c1O
TGI (A549 NSCLC): 10.4 µM
TGI (NCI-H460 lung): 2.01 µM
TGI (NCI-H522 lung): 2.47 µM

CN(C)CCNc1nc2ccccc2c2c1CCCC2
TGI (A549 NSCLC): > 100 µM
TGI (NCI-H460 lung): 31 µM
TGI (NCI-H522 lung): 33.1 µM

COc1ccc(NC(=S)N/N=C\c2ccc(NC(C)=O)cc2)cc1
TGI (A549 NSCLC): > 100 µM
TGI (NCI-H460 lung): > 100 µM
TGI (NCI-H522 lung): > 100 µM

COC(=O)CCC(C)[C@H]1CCC2C3C(C[C@H](OC(C)=O)[C@@]21C)[C@@]1(C)CCC2(C[C@H]1C[C@H]3OC(C)=O)OOC1(CCCC1)OO2 (some centres not stated)
TGI (A549 NSCLC): > 100 µM
TGI (NCI-H460 lung): > 100 µM
TGI (NCI-H522 lung): > 100 µM

O=c1ccn(CC2(CO)CCCC2)c(=O)[nH]1
TGI (A549 NSCLC): > 100 µM
TGI (NCI-H460 lung): > 100 µM
TGI (NCI-H522 lung): > 100 µM

Cc1c2ccnc(C(=O)NCCN(C)C)c2cc2c3cc(O)ccc3n(C)c12
TGI (A549 NSCLC): 7.26 µM
TGI (NCI-H460 lung): 1.39 µM
TGI (NCI-H522 lung): 1.02 µM

Cc1ccc(S(=O)(=O)CN2C(=O)C(c3ccccc3)(c3ccccc3)C23OC(c2ccc(Cl)cc2)=CC3=O)cc1 (configuration not stated)
TGI (A549 NSCLC): > 10 µM
TGI (NCI-H460 lung): > 10 µM
TGI (NCI-H522 lung): > 10 µM

CCOc1ccc2nc3nc(=O)[nH]c(C)c3c(NCCCN(CC)CC)c2c1
TGI (A549 NSCLC): > 100 µM
TGI (NCI-H460 lung): > 100 µM
TGI (NCI-H522 lung): > 100 µM

CC(=O)OCC(C)C1=C(OC(C)=O)C(=O)C2(C)C/C=C(/C)CC/C=C(\C)CCC(OC(C)=O)C(C)CCC12 (configuration not stated)
TGI (NCI-H460 lung): 10.8 µM

Oc1cc(O)c2ccc(-c3ccc(O)c(O)c3)[o+]c2c1
TGI (A549 NSCLC): > 100 µM
TGI (NCI-H460 lung): > 100 µM
TGI (NCI-H522 lung): > 100 µM

O=Cc1c2n(c3ccccc13)N[C@@](Cc1ccc(O)cc1)(C(=O)O)C2
TGI (A549 NSCLC): > 100 µM
TGI (NCI-H522 lung): > 100 µM

CC(=O)Nc1ccc(NS(=O)(=O)c2ccc3nc(C)n(NS(=O)(=O)c4ccc(NC(C)=O)cc4)c(=O)c3c2)cc1
TGI (A549 NSCLC): > 100 µM
TGI (NCI-H460 lung): > 100 µM
TGI (NCI-H522 lung): > 100 µM

Cc1sc2[nH]c(=O)oc(=O)c2c1C
TGI (A549 NSCLC): > 100 µM
TGI (NCI-H460 lung): > 100 µM
TGI (NCI-H522 lung): > 83.1 µM

O=C(O)CSC(CC1(c2ccc(Cl)cc2)NC(=O)CS1)c1ccc(Cl)cc1 (configuration not stated)
TGI (A549 NSCLC): > 100 µM
TGI (NCI-H460 lung): > 100 µM
TGI (NCI-H522 lung): > 100 µM

C(/C=C/c1ccccc1)=Nc1ccc2c(c1)Cc1ccccc1-2
TGI (A549 NSCLC): > 100 µM
TGI (NCI-H460 lung): > 100 µM
TGI (NCI-H522 lung): > 100 µM

NC(=O)C(=O)c1ncn(Cc2ccccc2)c1N
TGI (A549 NSCLC): > 100 µM
TGI (NCI-H460 lung): > 100 µM
TGI (NCI-H522 lung): > 100 µM

CCCCCCCCOCC(O)COC(C)C (configuration not stated)
TGI (LXFL 529 NSCLC): > 100 µM
TGI (DLD-1 colon): > 100 µM
TGI (KM20L2 colon): > 100 µM
TGI (DMS 273 small cell lung): 34.7 µM
TGI (A549 NSCLC): > 100 µM
TGI (NCI-H460 lung): > 100 µM
TGI (HOP-18 NSCLC): > 100 µM
TGI (M19-MEL melanoma): > 100 µM

O=C(Cn1cc(-c2ccccc2)nn1)NC1CCCCC1
TGI (A549 NSCLC): > 100 µM
TGI (NCI-H460 lung): > 100 µM
TGI (NCI-H522 lung): > 100 µM

CC1=NN(c2nc(N)nc(CBr)n2)C(C)(C)C1
TGI (A549 NSCLC): 37.1 µM
TGI (NCI-H460 lung): 23.8 µM
TGI (NCI-H522 lung): 1.01 µM

NC(CSCc1ccc(I)cc1)C(=O)O (configuration not stated)
TGI (A549 NSCLC): > 100 µM
TGI (NCI-H460 lung): > 100 µM
TGI (NCI-H522 lung): > 100 µM

Cc1ccc(/C=N/n2c(Cc3ccccc3)n[nH]c2=O)cc1
TGI (A549 NSCLC): > 100 µM
TGI (NCI-H460 lung): > 100 µM
TGI (NCI-H522 lung): > 100 µM

COc1cc2nc(Nc3cccc(Br)c3)nc(Nc3cccc(Br)c3)c2cc1OC
TGI (A549 NSCLC): 32.6 µM
TGI (NCI-H460 lung): 51.8 µM
TGI (NCI-H522 lung): 32.4 µM

Cn1c(NNc2ccccc2)cc(=O)[nH]c1=O
TGI (A549 NSCLC): > 100 µM
TGI (NCI-H460 lung): > 100 µM
TGI (NCI-H522 lung): 40.5 µM

O=C(c1ccccc1)c1ccc(N2C(=O)/C(=C/Cc3ccco3)N=C2c2ccccc2)c(N2C(=O)/C(=C/Cc3ccco3)N=C2c2ccccc2)c1
TGI (A549 NSCLC): > 100 µM
TGI (NCI-H460 lung): > 100 µM

CCc1c(CN)c(CC)c(CNC2=NCCN2)c(CC)c1CNC1=NCCN1
TGI (A549 NSCLC): > 100 µM
TGI (NCI-H460 lung): > 100 µM
TGI (NCI-H522 lung): > 100 µM

COC(=O)/C(=N\NC(N)=O)C(C(=O)C(=O)Nc1ccccc1OC)c1nc2ccc([N+](=O)[O-])cc2[nH]c1=O (configuration not stated)
TGI (A549 NSCLC): > 100 µM
TGI (NCI-H460 lung): > 100 µM
TGI (NCI-H522 lung): > 100 µM

CCN(CC)C(=O)Cn1c(-c2ccccc2)cc2ccccc21
TGI (A549 NSCLC): > 100 µM
TGI (NCI-H460 lung): > 100 µM
TGI (NCI-H522 lung): > 100 µM

c1ccc2c(c1)NCCC(=NC1CCCCC1)N2
TGI (A549 NSCLC): > 100 µM
TGI (NCI-H460 lung): > 100 µM
TGI (NCI-H522 lung): > 100 µM

N#CC(N)c1ccc(OCCCCCCCCCCOc2ccc(C(N)C#N)cc2)cc1 (configuration not stated)
TGI (A549 NSCLC): > 100 µM
TGI (NCI-H460 lung): > 100 µM
TGI (NCI-H522 lung): > 100 µM

FC(F)(F)c1ccc(Cc2nc3cc4ccccc4cc3[nH]2)cc1
TGI (A549 NSCLC): > 100 µM
TGI (NCI-H460 lung): > 100 µM
TGI (NCI-H522 lung): > 100 µM

Nc1ccc2nc3c(nc2c1)C(=O)c1ccccc1-3
TGI (A549 NSCLC): > 100 µM
TGI (NCI-H460 lung): > 100 µM
TGI (NCI-H522 lung): > 100 µM

O=C(NC(Cl)(C(F)(F)F)C(F)(F)F)c1ccc(F)cc1
TGI (A549 NSCLC): > 100 µM
TGI (NCI-H460 lung): > 100 µM

CCCCCCCCCCCCCCCCCCNc1ccn(C2OC(COP(=O)(O)OCC3OC(n4cc(C)c(=O)[nH]c4=O)CC3F)C(O)C2O)c(=O)n1 (configuration not stated)
TGI (A549 NSCLC): 46.7 µM
TGI (NCI-H460 lung): 43.9 µM
TGI (NCI-H522 lung): 9.04 µM

C[Si](C)(C)C#Cc1cc(-c2nc3ccccc3s2)ccc1N
TGI (A549 NSCLC): 40.7 µM
TGI (NCI-H460 lung): 31.1 µM
TGI (NCI-H522 lung): 27.3 µM

CC1(C)CC(O)C2=C(O1)C(=O)c1ncccc1C2=O (configuration not stated)
TGI (A549 NSCLC): 23.4 µM
TGI (NCI-H460 lung): 5.89 µM
TGI (NCI-H522 lung): 3.86 µM

Clc1c(Cl)c(Cl)c2c(nnn2C2CCCO2)c1Cl (configuration not stated)
TGI (A549 NSCLC): 65.1 µM
TGI (NCI-H460 lung): 41.8 µM
TGI (NCI-H522 lung): 66.6 µM

Nc1ccccc1Nc1ccccc1C(=O)[O-].Nc1ccccc1Nc1ccccc1C(=O)[O-].[Zn+2]
TGI (XF 498 CNS): 78.7 µM
TGI (KM20L2 colon): > 100 µM
TGI (A549 NSCLC): > 100 µM
TGI (NCI-H460 lung): > 100 µM
TGI (NCI-H522 lung): 44.4 µM

C1=NCCN2CCN(CCN=Cc3ccccc3OCc3cccc(n3)COc3ccccc31)CC2
TGI (A549 NSCLC): > 50 µM
TGI (NCI-H460 lung): > 50 µM
TGI (NCI-H522 lung): > 50 µM

CCOP(=O)(OCC)C(C)(C)N(C)/C(F)=N/C(F)(F)F
TGI (A549 NSCLC): > 100 µM
TGI (NCI-H460 lung): > 100 µM

Clc1ccc(Nc2nnc(CCCCCCCCc3nnc(Nc4ccc(Cl)cc4)o3)o2)cc1
TGI (A549 NSCLC): 89.8 µM
TGI (NCI-H460 lung): > 100 µM
TGI (NCI-H522 lung): 73.1 µM

COc1ccc(N=C2S/C(=N\C(=Nc3ccccc3)SCc3ccccc3)N(c3ccccc3)C2=Nc2ccc(OC)cc2)cc1
TGI (A549 NSCLC): > 100 µM
